Measurements as given in patent US20240391876A1 (priority 2021, published 2024).

What was measured:
SARS-COV-2 = experiment: Cytopathic effect (CPE) assay against COVID-19 in Vero E6 cells, neutral red uptake; assay type: cell-based; conditions: 2 μg/mL quinacrine, 120 h p.i., at the 30% cytotoxic concentration
Method: The cytoprotective effect of quinacrine was determined by the cell viability, which is measured by the uptake of neutral red dye at A540.
In this study, the antiviral efficiency of quinacrine was evaluated against COVID-19 in vitro. Antiviral activity was evaluated using a cytopathic effect (CPE) assay, which determines the ability of the compound to prevent viral CPE in African green monkey kidney cells, Vero E6. Four dilutions of the test compound were evaluated, and the effective antiviral concentration was determined by regression analysis. The cytotoxicity of the test compound was determined in parallel by the neutral red cell cytotoxicity assay, a common method used to detect cell viability or drug cytotoxicity. CPE was determined by the uptake of neutral red dye. Quinacrine protects more than 80% of the infected cells from the cytopathic effects caused by COVID-19 at 2 μg/mL concentration (FIG. 8). The tissue distribution of quinacrine was investigated in a previous study by treating mice daily by oral gavage with 30 mg/kg of quinacrine (35% v/v ethanol in distilled water) dissolved in 100 μL total volume for 28 days.

RET G4 = experiment: CD spectroscopy and CD melting curve of RET G4; assay type: binding
Method: In both graphs in FIG. 6, at the 260 wavelength lines in descending order are 20° C., 30° C., 40° C., 50° C., 60° C., 70° C., 80° C., and 90° C.
Quinacrine was further investigated as to whether it stabilizes the RET G4 structure using circular dichroism (CD) spectroscopic analysis. […] Next, the thermal stability of the G-quadruplex structure was examined by monitoring the CD melting curve in the absence and presence of quinacrine (5 equivalent) at increasing temperatures.

COVID-19 [1] = experiment: Oral administration of quinacrine to a COVID-19 patient (Example 3); assay type: in vivo, human
Method: The following example describes treatment strategies for COVID-19 involving an oral administration of Quinacrine.
Recently, a COVID-19 test for a person has come back positive. […] After a week at the hospital, the patient's symptoms show no signs of improvement. The doctors at the hospital prescribe to the patient an initial 200 mg dose orally every 6 hours for 5 doses, followed by 100 mg 3 times a day for 6 days. Alternatively, 100 mg is orally administered to the patient after meals 3 times a day for 5 to 7 days. After a week and a half of taking quinacrine daily, the patient's symptoms improve. […] The patient is released from the hospital and is told to stay in self-isolation for another week.

RET G-quadruplex = experiment: Taq DNA polymerase stop assay; assay type: biochemical; conditions: quinacrine 0, 0.5, 1.0 and 2.0 μM
Method: DNA polymerase stop assay was performed at increasing concentrations of each drug. Lanes M represents the di-deoxy sequencing G-reactions with the same template, which serves as the marker to locate the exact stop site. Bands P, S, and F represent the position of the free primer, stop products by G-quadruplex structures, and full-length products, respectively, on the gel.
The G4-stabilizing effect of quinacrine was validated with the RET G4 as a model G4 using a DNA polymerase stop assay and CD spectroscopic studies. In this assay, the ligand mediated stabilization of the G-quadruplex structure arising from the DNA template prevents the progression of the Taq DNA polymerase during primer extension.

[2] = system: COVID-19 RNA G4s (SG1 and SG2); experiment: UV-Vis absorption spectra of quinacrine with RNA G4; assay type: binding, SARS-COV-2; conditions: SG1, SG2 at different concentrations; 10 mM Tris-HCl pH 7.6, 5 mM NaCl, 50 mM KCl
Excerpt: UV-Vis spectroscopy is the most common and convenient technique to study the interaction between small molecules with nucleic acids, including RNA G4. Molecules containing aromatic chromophore groups interact with RNA G4, and the molecular interaction can be studied based on the changes in the absorption spectra. The hypochromic effect is a spectral property for RNA G4-drug interactions that are closely related to the G4 structure. […] With the addition of G4 RNA, the intensity at both 350 nm and 450 nm bands decreased, inducing the hypochromicity at these wavelengths (FIG. 7). This can be attributed to the decrease in the number of chromophores in solution due to the interaction of quinacrine with RNA G4.

[3] = system: Influenza A/California/07/2009 (H1N1); experiment: Cytopathic effect (CPE) assay against Influenza A (H1N1), neutral red uptake; assay type: cell-based, Influenza A virus; conditions: 2 μg/mL quinacrine; three days incubation
COVID-19 [4] = experiment: Intravenous administration of quinacrine to a COVID-19 patient (Example 2); assay type: in vivo, human
Method: The following example describes treatment strategies for COVID-19 involving an intravenous administration of Quinacrine to a patient.
A person wakes up one morning with a fever of 102.4° F. and a tightness in their chest. They are an essential hospital worker and so believes they may have contracted COVID-19. Therefore, they call their primary care physician to determine their next steps. The primary care physician decides that they should be brought in for testing since they are at a higher risk for complications because the patient has severe asthma. The person gets a nose swab for the test. The doctor mentions that they will call the patient with the results as soon as possible. For now, the person is told to self-isolate and to monitor any changes in symptoms, calling if things get progressively worse. Quickly the person's condition deteriorates, and they begin to experience difficulty breathing and pressure in their chest. The doctor admits them to the ICU of the hospital because they require supplemental oxygen to maintain their oxygen levels. Shortly after being admitted to the ICU, the result of their test comes back positive for COVID-19. The ICU doctor gives the patient an intravenous injection of 200 mg initially every 6 hours for 5 doses, followed by 100 mg 3 times a day for 6 days. Alternatively, 100 mg is administered via IV infusion 3 times a day for 5 to 7 days. […]

COVID-19 and influenza = experiment: Oral administration of quinacrine for prevention of COVID-19 and influenza (Example 5); assay type: in vivo, human; conditions: 300 mg orally twice a day for a month
Method: The following example describes prevention strategies for COVID-19 and influenza involving an oral administration of Quinacrine.
A person wants to prevent getting sick during the upcoming winter season. Therefore, they schedule an appointment with their primary care physician to discuss their options. At the appointment, the doctor recommends taking a 300 mg pill of quinacrine orally twice a day for the next month.

[5] = mice; 30 mg/kg daily oral gavage; after 28 d of treatment; cited from earlier work

## CCN(CC)CCCC(C)Nc1c2ccc(Cl)cc2nc2ccc(OC)cc12 (centres unmarked) [quinacrine]
SARS-COV-2
  reduction of CPE due to SARS-COV-2 / protection of infected cells from cytopathic effects: more than 80%
RET G4; in the presence of quinacrine
  positive CD peak at 262 nm (parallel G-quadruplex structure): not affected
RET G4; quinacrine 5 equivalent, increasing temperatures
  melting temperature (Tm) of the RET G4 structure: significantly increased
COVID-19 [1]; oral quinacrine, patient
  side effects: No side effects
COVID-19 [1]; person, oral 200 mg every 6 hours for 5 doses, then 100 mg 3 times a day for 6 days
  clinical outcome: tests negative for COVID-19
RET G-quadruplex
  amount of arrested product (stop product by G-quadruplex): dose-dependent increase
[2]
  absorbance intensity at 350 nm and 450 nm bands on addition of G4 RNA: decreased
[3]
  protection of infected cells from cytopathic effects caused by Influenza A (H1N1): more than 80%
COVID-19 [4]; intravenous quinacrine, patient
  side effects: No side effects
COVID-19 [4]; person, intravenous 200 mg every 6 hours for 5 doses, then 100 mg 3 times a day for 6 days, after a week
  clinical outcome: tests negative for COVID-19
COVID-19 and influenza
  side effects: No side effects
COVID-19 and influenza; person
  prevention outcome: without getting sick
[5]
  mean concentration in whole blood: 470 ng/mL
  mean lung concentration: 2600 ng/mL
